According to US5677419A, “Cyclic vasoactive peptide analogs” (Hoffmann-La Roche Inc., priority 1994, dated 1997):
Where a SMILES comes first, the peptide text is derived from it. Bridges are numbered along the chain shown (N, C = ends). [ ]: non-standard residue; d: D form. Nle = CCCC[C@H](N)C(=O)O; Orn = NCCC[C@H](N)C(=O)O

Test system: guinea pig tracheal smooth muscle
Test: Tracheal relaxant activity of VIP analogs on isolated guinea pig tracheal rings
Type: cell-based
Conditions: cumulative concentration response, relaxation as % of maximum response to VIP (10^-6 M=100%), three tissues pooled, linear regression
Description: The relaxant activity of the VIP analogs were studied in a model utilizing guinea pig trachea. [Wasserman, M. A. et al., in Vasoactive Intestinal Peptide, S. I. Said, ed., Raven Press, New York 1982, pp 177-184] All tissues were taken from male albino guinea pig weighing 400-600 g, anesthetized with urethane (2 g/kg, i.p.). After exanguination, the trachea were removed and divided into four ring segments (3 mm length). Each ring was suspended by 30 gauge stainless steel wires in a 10 mL jacketed tissue bath and attached via 4-0 silk thread to a GRASS force displacement transducer (model FT03C, Grass Instruments Co., Quincy, Mass.), for isometric recording of tension. The smooth muscle was bathed in modified Krebs solution of the following composition: NaCl, 120 mM; KCl, 4.7 mM; CaCl2, 2.5 mM; MgSO4.7H2 O, 1.2 mM; NaHCO3, 25 mM; K2 HPO4 monobasic, 1.2 mM; and dextrose, 10 mM. Tissue baths were maintained at 37° C. and constantly bubbled with 95% O2 and 5% CO2. Responses were recorded on an 8 channel and a 4 channel HEWLETT-PACKARD (model 7702B and 7754A, respectively) recorder (Hewlett- Packard, Paramus, N.J.). Tracheal rings were placed under a resting tension of 1.5 g which was determined to be at or near optimal in preliminary experiments. Frequent readjustments of tension were required during the 60 minute stabilization period which followed. Tissues were rinsed at 15 minute intervals.
Cumulative concentration response curves were obtained for each tissue by successive […] increases in the bath concentration of VIP or VIP analogs according to the method of VanRossum [Arch. Int. Pharmacodyn., 143, 299-330 (1963)]. Only one cumulative dose response curve was obtained on a single tissue. To minimize variability between tissues, relaxant responses were expressed as a percentage of the maximum response obtained to VIP (10^-6 M=100%) added at the end of each concentration response experiment. Responses obtained from three tissues were pooled and EC50 values were determined by linear regression.
The results summarized in Table I show the tracheal relaxant activity of the VIP analogs in comparison to native VIP.

Row | EC50 [nM] | SMILES
1 | 14 | CCCC[C@H](NC(=O)[C@H](CCC(N)=O)NC(=O)[C@H](CCCCN)NC(=O)[C@H](CCCNC(=N)N)NC(=O)[C@H](CC(C)C)NC(=O)[C@@H]1CCCCNC(=O)C[C@H](NC(=O)[C@@H](NC(=O)[C@H](Cc2ccccc2)NC(=O)[C@@H](NC(=O)[C@H](C)NC(=O)[C@H](CC(=O)O)NC(=O)[C@H](CO)NC(=O)[C@H](Cc2c[nH]cn2)NC(C)=O)C(C)C)[C@@H](C)O)C(=O)N[C@@H](CC(N)=O)C(=O)N[C@@H](Cc2ccc(O)cc2)C(=O)N[C@@H]([C@@H](C)O)C(=O)N1)C(=O)N[C@@H](C)C(=O)N[C@H](C(=O)N[C@@H](CCCCN)C(=O)N[C@@H](CCCCN)C(=O)N[C@@H](Cc1ccc(O)cc1)C(=O)N[C@@H](CC(C)C)C(=O)N[C@@H](CC(N)=O)C(=O)N[C@@H](CO)C(=O)N[C@H](C(=O)N[C@@H](CC(C)C)C(=O)N[C@H](C(N)=O)[C@@H](C)O)C(C)C)C(C)C [SEQ ID NO:20, Ac-[Lys^12,Nle^17,Val^26,Thr^28]-VIP cyclo (Asp^8 →Lys^12)] (Ac-HSDAVFTDNYTKLRKQ[Nle]AVKKYLNSVLT-NH2; lactam 8-12)
2 | 34 | CCCC[C@H](NC(=O)[C@H](CCC(N)=O)NC(=O)[C@H](CCCCN)NC(=O)[C@H](CCCNC(=N)N)NC(=O)[C@H](CC(C)C)NC(=O)[C@@H]1CCCCNC(=O)CC[C@H](NC(=O)[C@@H](NC(=O)[C@H](Cc2ccccc2)NC(=O)[C@@H](NC(=O)[C@H](C)NC(=O)[C@H](CC(=O)O)NC(=O)[C@H](CO)NC(=O)[C@H](Cc2c[nH]cn2)NC(C)=O)C(C)C)[C@@H](C)O)C(=O)N[C@@H](CC(N)=O)C(=O)N[C@@H](Cc2ccc(O)cc2)C(=O)N[C@@H]([C@@H](C)O)C(=O)N1)C(=O)N[C@@H](C)C(=O)N[C@H](C(=O)N[C@@H](CCCCN)C(=O)N[C@@H](CCCCN)C(=O)N[C@@H](Cc1ccc(O)cc1)C(=O)N[C@@H](CC(C)C)C(=O)N[C@@H](CC(N)=O)C(=O)N[C@@H](CO)C(=O)N[C@H](C(=O)N[C@@H](CC(C)C)C(=O)N[C@H](C(N)=O)[C@@H](C)O)C(C)C)C(C)C [SEQ ID NO:21, Ac-[Glu^8,Lys^12,Nle^17,Val^26,Thr^28]-VIP cyclo (Glu^8 →Lys^12)] (Ac-HSDAVFTENYTKLRKQ[Nle]AVKKYLNSVLT-NH2; lactam 8-12)
3 | 17 | CCCC[C@H](NC(=O)[C@H](CCC(N)=O)NC(=O)[C@H](CCCCN)NC(=O)[C@H](CCCNC(=N)N)NC(=O)[C@H](CC(C)C)NC(=O)[C@@H]1CCCCNC(=O)C[C@H](NC(=O)[C@H](CC(N)=O)NC(=O)[C@@H](NC(=O)[C@H](Cc2ccccc2)NC(=O)[C@@H](NC(=O)[C@H](C)NC(=O)[C@H](CC(=O)O)NC(=O)[C@H](CO)NC(=O)[C@H](Cc2c[nH]cn2)NC(C)=O)C(C)C)[C@@H](C)O)C(=O)N[C@@H](Cc2ccc(O)cc2)C(=O)N[C@@H]([C@@H](C)O)C(=O)N1)C(=O)N[C@@H](C)C(=O)N[C@H](C(=O)N[C@@H](CCCCN)C(=O)N[C@@H](CCCCN)C(=O)N[C@@H](Cc1ccc(O)cc1)C(=O)N[C@@H](CC(C)C)C(=O)N[C@@H](CC(N)=O)C(=O)N[C@@H](CO)C(=O)N[C@H](C(=O)N[C@@H](CC(C)C)C(=O)N[C@H](C(N)=O)[C@@H](C)O)C(C)C)C(C)C [SEQ ID NO:22, Ac-[Asn^8,Asp^9,Lys^12,Nle^17,Val^26,Thr^28]-VIP cyclo (Asp^9 →Lys^12)] (Ac-HSDAVFTNDYTKLRKQ[Nle]AVKKYLNSVLT-NH2; lactam 9-12)
4 | 40 | CCCC[C@H](NC(=O)[C@H](CCC(N)=O)NC(=O)[C@H](CCCCN)NC(=O)[C@H](CCCNC(=N)N)NC(=O)[C@H](CC(C)C)NC(=O)[C@@H]1CCCNC(=O)C[C@H](NC(=O)[C@@H](NC(=O)[C@H](Cc2ccccc2)NC(=O)[C@@H](NC(=O)[C@H](C)NC(=O)[C@H](CC(=O)O)NC(=O)[C@H](CO)NC(=O)[C@H](Cc2c[nH]cn2)NC(C)=O)C(C)C)[C@@H](C)O)C(=O)N[C@@H](CC(N)=O)C(=O)N[C@@H](Cc2ccc(O)cc2)C(=O)N[C@@H]([C@@H](C)O)C(=O)N1)C(=O)N[C@@H](C)C(=O)N[C@H](C(=O)N[C@@H](CCCCN)C(=O)N[C@@H](CCCCN)C(=O)N[C@@H](Cc1ccc(O)cc1)C(=O)N[C@@H](CC(C)C)C(=O)N[C@@H](CC(N)=O)C(=O)N[C@@H](CO)C(=O)N[C@H](C(=O)N[C@@H](CC(C)C)C(=O)N[C@H](C(N)=O)[C@@H](C)O)C(C)C)C(C)C [SEQ ID NO:23, Ac-[Orn^12,Nle^17,Val^26,Thr^28]-VIP cyclo (Asp^8 →Orn^12)] (Ac-HSDAVFTDNYT[Orn]LRKQ[Nle]AVKKYLNSVLT-NH2; lactam 8-12)
5 | 38 | CCCC[C@H](NC(=O)[C@H](CCC(N)=O)NC(=O)[C@H](CCCCN)NC(=O)[C@H](CCCNC(=N)N)NC(=O)[C@H](CC(C)C)NC(=O)[C@@H]1CC(=O)NCCCC[C@H](NC(=O)[C@@H](NC(=O)[C@H](Cc2ccccc2)NC(=O)[C@@H](NC(=O)[C@H](C)NC(=O)[C@H](CC(=O)O)NC(=O)[C@H](CO)NC(=O)[C@H](Cc2c[nH]cn2)NC(C)=O)C(C)C)[C@@H](C)O)C(=O)N[C@@H](CC(N)=O)C(=O)N[C@@H](Cc2ccc(O)cc2)C(=O)N[C@@H]([C@@H](C)O)C(=O)N1)C(=O)N[C@@H](C)C(=O)N[C@H](C(=O)N[C@@H](CCCCN)C(=O)N[C@@H](CCCCN)C(=O)N[C@@H](Cc1ccc(O)cc1)C(=O)N[C@@H](CC(C)C)C(=O)N[C@@H](CC(N)=O)C(=O)N[C@@H](CO)C(=O)N[C@H](C(=O)N[C@@H](CC(C)C)C(=O)N[C@H](C(N)=O)[C@@H](C)O)C(C)C)C(C)C [SEQ ID NO:24, Ac-[Lys^8,Asp^12,Nle^17,Val^26,Thr^28]-VIP cyclo (Lys^8 →Asp^12)] (Ac-HSDAVFTKNYTDLRKQ[Nle]AVKKYLNSVLT-NH2; lactam 8-12)
6 | 16 | CCCC[C@H](NC(=O)[C@H](CCC(N)=O)NC(=O)[C@H](CCCCN)NC(=O)[C@H](CCCNC(=N)N)NC(=O)[C@H](CC(C)C)NC(=O)[C@@H]1CCCNC(=O)CC[C@H](NC(=O)[C@@H](NC(=O)[C@H](Cc2ccccc2)NC(=O)[C@@H](NC(=O)[C@H](C)NC(=O)[C@H](CC(=O)O)NC(=O)[C@H](CO)NC(=O)[C@H](Cc2c[nH]cn2)NC(C)=O)C(C)C)[C@@H](C)O)C(=O)N[C@@H](CC(N)=O)C(=O)N[C@@H](Cc2ccc(O)cc2)C(=O)N[C@@H]([C@@H](C)O)C(=O)N1)C(=O)N[C@@H](C)C(=O)N[C@H](C(=O)N[C@@H](CCCCN)C(=O)N[C@@H](CCCCN)C(=O)N[C@@H](Cc1ccc(O)cc1)C(=O)N[C@@H](CC(C)C)C(=O)N[C@@H](CC(N)=O)C(=O)N[C@@H](CO)C(=O)N[C@H](C(=O)N[C@@H](CC(C)C)C(=O)N[C@H](C(N)=O)[C@@H](C)O)C(C)C)C(C)C [SEQ ID NO:25, Ac-[Glu^8,Orn^12,Nle^17,Val^26,Thr^28]-VIP cyclo (Glu^8 →Orn^12)] (Ac-HSDAVFTENYT[Orn]LRKQ[Nle]AVKKYLNSVLT-NH2; lactam 8-12)
